Key:
Human δ-opioid (DOP) = molecular target: T1, Human δ-opioid (DOP) (Homo sapiens, UniProt P41143); experiment: Radioligand binding, human δ-opioid (DOP) membranes, FlashPlate, [3H]-Bremazocine; details: compound at 10 μM; for A1 radioligand binding inhibition: human δ-opioid (DOP) membranes
T1 construct: purchased Perkin Elmer Biosignal
In short: (§1)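 Cloned human receptor membranes were coated onto FlashPlate wells and incubated with radioligand and compound (added from a 0.5 mM DMSO daughter plate) for 1 hour at room temperature in the dark. Scintillation counting gave percent inhibition, with DMSO defining total and reference ligand defining non-specific binding.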

Human κ-Opioid (KOP) = molecular target: T2, Human κ-Opioid (KOP) (Homo sapiens, UniProt P41145); experiment: Radioligand binding, human κ-opioid (KOP) membranes, filtration, [3H]-Diprenorphine; details: compound at 10 μM; for A2 radioligand binding inhibition: human κ-opioid (KOP) membranes
T2 construct: purchased Perkin Elmer Biosignal
T2 sequence (P41145 whole entry): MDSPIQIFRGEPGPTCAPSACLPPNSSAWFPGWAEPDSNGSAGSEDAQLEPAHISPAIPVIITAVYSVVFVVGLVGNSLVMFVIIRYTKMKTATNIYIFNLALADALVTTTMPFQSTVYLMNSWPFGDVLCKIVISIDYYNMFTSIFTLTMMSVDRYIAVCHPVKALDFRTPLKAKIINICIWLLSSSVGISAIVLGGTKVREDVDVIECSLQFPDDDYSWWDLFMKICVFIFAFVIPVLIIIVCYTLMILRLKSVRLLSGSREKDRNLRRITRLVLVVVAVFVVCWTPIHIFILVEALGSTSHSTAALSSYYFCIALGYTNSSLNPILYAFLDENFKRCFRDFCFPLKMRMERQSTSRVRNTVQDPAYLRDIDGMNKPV
In short: (§2)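 Percent inhibition of radioligand binding measured on recombinant human membranes: NK1 with [125I]-Substance P, KOP with [3H]-Diprenorphine. Incubation 1 h at room temperature, then harvest onto 0.3% PEI-soaked filters, cold Tris-HCl pH 7.4 washes and scintillation counting; non-specific binding from reference ligand wells.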

Human Melanocortin (MC3) = molecular target: T3, Human Melanocortin (MC3) (Homo sapiens, UniProt P41968); experiment: Radioligand binding, human melanocortin MC3 membranes, FlashPlate, [125I]-NDP-αMSH; details: compound at 10 μM; for A3 radioligand binding inhibition: human melanocortin MC3 membranes
T3 construct: purchased Perkin Elmer Biosignal
T3 sequence (P41968 whole entry): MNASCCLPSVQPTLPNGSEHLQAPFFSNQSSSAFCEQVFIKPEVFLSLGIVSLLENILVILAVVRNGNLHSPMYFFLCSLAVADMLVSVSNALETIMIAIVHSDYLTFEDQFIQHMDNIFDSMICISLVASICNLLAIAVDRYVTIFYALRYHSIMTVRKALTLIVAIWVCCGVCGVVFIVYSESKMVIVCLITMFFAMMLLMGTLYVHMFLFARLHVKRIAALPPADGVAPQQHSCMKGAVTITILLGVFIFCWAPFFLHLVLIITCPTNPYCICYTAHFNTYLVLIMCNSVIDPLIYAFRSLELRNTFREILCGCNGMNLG
In short: as §1

Human Melanocortin (MC4) = molecular target: T4, Human Melanocortin (MC4) (Homo sapiens, UniProt P32245); experiment: Radioligand binding, human melanocortin MC4 membranes, FlashPlate, [125I]-NDP-αMSH; details: compound at 10 μM; for A4 radioligand binding inhibition: human melanocortin MC4 membranes
T4 construct: purchased Perkin Elmer Biosignal
T4 sequence (P32245 whole entry): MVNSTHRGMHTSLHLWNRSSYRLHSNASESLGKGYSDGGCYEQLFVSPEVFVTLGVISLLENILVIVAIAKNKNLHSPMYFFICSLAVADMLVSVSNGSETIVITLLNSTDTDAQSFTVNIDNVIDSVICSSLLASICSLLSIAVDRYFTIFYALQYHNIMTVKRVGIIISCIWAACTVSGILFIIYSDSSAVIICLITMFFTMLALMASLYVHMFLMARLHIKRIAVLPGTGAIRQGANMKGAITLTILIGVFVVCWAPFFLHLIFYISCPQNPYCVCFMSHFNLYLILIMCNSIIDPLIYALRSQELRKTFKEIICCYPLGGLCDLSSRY
In short: as §1

Human melanocortin (MC5) = molecular target: T5, Human melanocortin (MC5) (Homo sapiens, UniProt P33032); experiment: Radioligand binding, human melanocortin MC5 membranes, FlashPlate, [125I]-NDP-αMSH; details: compound at 10 μM; for A5 radioligand binding inhibition: human melanocortin MC5 membranes
T5 construct: purchased Perkin Elmer Biosignal
T5 sequence (P33032 whole entry): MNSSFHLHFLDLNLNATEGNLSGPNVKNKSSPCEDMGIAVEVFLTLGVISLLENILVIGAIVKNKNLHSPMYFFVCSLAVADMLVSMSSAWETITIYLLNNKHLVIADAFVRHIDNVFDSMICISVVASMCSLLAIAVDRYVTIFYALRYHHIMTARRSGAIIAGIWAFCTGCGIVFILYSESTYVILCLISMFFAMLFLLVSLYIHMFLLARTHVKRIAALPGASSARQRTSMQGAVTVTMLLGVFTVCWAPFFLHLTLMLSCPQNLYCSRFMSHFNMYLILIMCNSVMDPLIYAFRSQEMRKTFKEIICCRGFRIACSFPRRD
In short: as §1

[1] = molecular target: T6, Human melanin-concentrating hormone (MCH1) (Homo sapiens, UniProt Q99705); experiment: Radioligand binding, human melanin-concentrating hormone MCH1 membranes, FlashPlate, [125I]-S36057; details: compound at 10 μM; for A6 radioligand binding inhibition: human MCH1 membranes
T6 construct: purchased Perkin Elmer Biosignal
T6 sequence (Q99705 whole entry): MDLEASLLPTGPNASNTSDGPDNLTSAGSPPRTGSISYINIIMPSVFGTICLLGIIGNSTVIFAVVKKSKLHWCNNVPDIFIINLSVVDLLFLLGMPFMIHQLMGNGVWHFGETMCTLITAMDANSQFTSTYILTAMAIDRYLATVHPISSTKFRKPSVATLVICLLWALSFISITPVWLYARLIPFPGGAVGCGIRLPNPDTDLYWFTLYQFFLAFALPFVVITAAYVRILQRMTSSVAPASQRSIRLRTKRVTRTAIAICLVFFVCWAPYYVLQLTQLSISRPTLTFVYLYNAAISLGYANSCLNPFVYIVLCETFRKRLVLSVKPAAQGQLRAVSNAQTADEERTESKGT
In short: as §1

Human μ-opioid (MOP) = molecular target: T7, Human μ-opioid (MOP) (Homo sapiens, UniProt P35372); experiment: Radioligand binding, human μ-opioid (MOP) membranes, FlashPlate, [3H]-Naloxone; details: compound at 10 μM; for A7 radioligand binding inhibition: human μ-opioid (MOP) membranes
T7 construct: purchased Perkin Elmer Biosignal
T7 sequence (P35372 whole entry): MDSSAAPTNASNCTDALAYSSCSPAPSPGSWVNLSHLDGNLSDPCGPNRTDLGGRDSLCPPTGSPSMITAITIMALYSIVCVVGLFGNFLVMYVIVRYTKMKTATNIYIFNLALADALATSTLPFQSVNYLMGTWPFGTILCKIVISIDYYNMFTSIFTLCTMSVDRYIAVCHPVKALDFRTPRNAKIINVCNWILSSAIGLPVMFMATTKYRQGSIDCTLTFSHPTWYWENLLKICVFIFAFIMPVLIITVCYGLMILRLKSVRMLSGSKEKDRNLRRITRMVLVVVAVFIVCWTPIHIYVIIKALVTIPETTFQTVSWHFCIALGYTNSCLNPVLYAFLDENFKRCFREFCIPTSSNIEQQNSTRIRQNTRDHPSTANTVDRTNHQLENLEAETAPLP
In short: as §1

Human neurokinin (NK1) = molecular target: T8, Human neurokinin (NK1) (Homo sapiens, UniProt P25103); experiment: Radioligand binding, human neurokinin NK1 membranes, filtration, [125I]-Substance P; details: compound at 10 μM; for A8 radioligand binding inhibition: human neurokinin NK1 membranes
T8 construct: purchased Perkin Elmer Biosignal
T8 sequence (P25103 whole entry): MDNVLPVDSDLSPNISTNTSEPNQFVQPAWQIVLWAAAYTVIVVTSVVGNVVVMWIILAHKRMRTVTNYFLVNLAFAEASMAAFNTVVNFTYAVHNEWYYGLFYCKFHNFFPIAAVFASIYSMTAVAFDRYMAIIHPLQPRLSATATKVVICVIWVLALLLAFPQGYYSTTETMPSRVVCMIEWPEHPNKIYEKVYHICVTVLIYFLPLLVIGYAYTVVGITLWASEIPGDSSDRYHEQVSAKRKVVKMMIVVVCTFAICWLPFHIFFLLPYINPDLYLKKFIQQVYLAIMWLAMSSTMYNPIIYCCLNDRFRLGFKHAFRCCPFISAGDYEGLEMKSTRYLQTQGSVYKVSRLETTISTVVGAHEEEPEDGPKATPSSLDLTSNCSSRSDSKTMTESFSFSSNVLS
In short: as §2

[2] = molecular target: T9, Human neuropeptide Y (NPY-Y1) (Homo sapiens, UniProt P25929); experiment: Radioligand binding, human neuropeptide Y NPY-Y1 membranes, FlashPlate, [125I]-PYY; details: compound at 10 μM; for A9 radioligand binding inhibition: human NPY-Y1 membranes
T9 construct: purchased Perkin Elmer Biosignal
T9 sequence (P25929 1-384): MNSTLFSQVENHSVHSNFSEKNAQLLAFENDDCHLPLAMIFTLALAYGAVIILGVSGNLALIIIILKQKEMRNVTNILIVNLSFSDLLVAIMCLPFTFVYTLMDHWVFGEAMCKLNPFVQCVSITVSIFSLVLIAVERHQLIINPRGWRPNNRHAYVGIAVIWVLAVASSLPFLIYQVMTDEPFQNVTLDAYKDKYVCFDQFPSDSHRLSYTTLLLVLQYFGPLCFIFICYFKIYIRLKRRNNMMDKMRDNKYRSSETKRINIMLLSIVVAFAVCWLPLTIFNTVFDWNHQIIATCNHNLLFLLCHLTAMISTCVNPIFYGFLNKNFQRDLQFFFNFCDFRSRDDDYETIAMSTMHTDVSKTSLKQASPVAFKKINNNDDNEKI
In short: as §1

Human opioid (ORL1) = molecular target: T10, Human opioid (ORL1) (Homo sapiens, UniProt P41146); experiment: Radioligand binding, human opioid ORL1 membranes, FlashPlate, [125I]-Nociceptin; details: compound at 10 μM; for A10 radioligand binding inhibition: human ORL1 membranes
T10 construct: purchased Perkin Elmer Biosignal
T10 sequence (P41146 whole entry): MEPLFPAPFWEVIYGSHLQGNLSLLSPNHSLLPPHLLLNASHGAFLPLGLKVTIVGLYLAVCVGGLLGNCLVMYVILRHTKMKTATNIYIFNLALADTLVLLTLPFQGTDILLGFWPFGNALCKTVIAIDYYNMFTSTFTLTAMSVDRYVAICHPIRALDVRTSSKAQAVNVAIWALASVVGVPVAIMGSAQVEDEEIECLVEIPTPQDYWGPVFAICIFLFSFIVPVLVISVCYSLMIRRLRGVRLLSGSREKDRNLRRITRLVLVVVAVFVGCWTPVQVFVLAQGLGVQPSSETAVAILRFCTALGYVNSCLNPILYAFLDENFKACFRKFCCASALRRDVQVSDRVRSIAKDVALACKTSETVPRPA
In short: as §1

Mouse urotensin (mUR2) = molecular target: T11, Mouse urotensin (mUR2) (Mus musculus, UniProt Q8VIH9); experiment: Radioligand binding, mouse urotensin mUR2 membranes, FlashPlate, [125I]-Urotensin II; details: compound at 10 μM; for A11 radioligand binding inhibition: mouse urotensin mUR2 membranes
T11 construct: purchased Perkin Elmer Biosignal
T11 sequence (Q8VIH9 1-385): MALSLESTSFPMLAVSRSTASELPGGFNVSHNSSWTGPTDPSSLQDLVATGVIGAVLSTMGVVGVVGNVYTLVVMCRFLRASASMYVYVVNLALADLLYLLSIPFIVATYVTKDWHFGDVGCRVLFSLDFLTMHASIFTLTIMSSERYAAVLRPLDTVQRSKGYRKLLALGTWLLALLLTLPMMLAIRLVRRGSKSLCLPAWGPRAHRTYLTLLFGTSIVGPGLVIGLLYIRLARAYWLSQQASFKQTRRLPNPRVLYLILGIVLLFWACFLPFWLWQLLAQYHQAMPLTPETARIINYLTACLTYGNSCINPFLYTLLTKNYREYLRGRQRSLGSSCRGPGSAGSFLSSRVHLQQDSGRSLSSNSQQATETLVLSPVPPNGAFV
In short: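 Cloned mouse urotensin (mUR2) receptor membranes from Perkin Elmer Biosignal were immobilized in FlashPlate microplates using a proprietary coating. Each well got 19.5 μl buffer, then 0.5 μl of DMSO, reference ligand, or compound. Adding 5 μl of [125I]-Urotensin II, diluted to 5× final concentration in binding buffer, started binding. Plates were sealed with TopSeal-A and incubated 1 hour at room temperature in the dark. Wells were counted for 30 seconds each on a TopCount after a 60-second delay, and percentage inhibition was calculated.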

T1 sequence (P41143 whole entry): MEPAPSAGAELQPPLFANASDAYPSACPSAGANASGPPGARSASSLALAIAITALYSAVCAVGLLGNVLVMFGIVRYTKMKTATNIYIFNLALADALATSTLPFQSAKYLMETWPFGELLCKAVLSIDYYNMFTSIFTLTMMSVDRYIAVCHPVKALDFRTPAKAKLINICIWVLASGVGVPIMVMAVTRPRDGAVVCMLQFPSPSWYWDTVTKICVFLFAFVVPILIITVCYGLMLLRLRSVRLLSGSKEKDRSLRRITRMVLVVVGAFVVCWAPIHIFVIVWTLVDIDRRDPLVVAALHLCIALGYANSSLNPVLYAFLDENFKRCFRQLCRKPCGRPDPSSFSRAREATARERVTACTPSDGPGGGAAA

N=C(N)NCC(=O)NC1C(OCc2ccc(Cl)cc2)OC(COCc2ccccc2)C(O)C1OCc1ccc(Cl)cc1 (single isomer, unassigned) [compound 510]
A1: inhibition of radioligand binding, human δ-opioid (DOP) (Human δ-opioid (DOP); [3H]-Bremazocine): − (“−” indicates less than 50% inhibition at 10 μM)
A2: inhibition of radioligand binding, human κ-opioid (KOP) (Human κ-Opioid (KOP); [3H]-Diprenorphine): − (“−” indicates less than 50% inhibition at 10 μM)
A3: inhibition of radioligand binding, human melanocortin (MC3) (Human Melanocortin (MC3); [125I]-NDP-αMSH, 10 µM): + (“+” indicates greater than 50% inhibition at 10 μM)
A4: inhibition of radioligand binding, human melanocortin (MC4) (Human Melanocortin (MC4); [125I]-NDP-αMSH): + (“+” indicates greater than 50% inhibition at 10 μM)
A5: inhibition of radioligand binding, human melanocortin (MC5) (Human melanocortin (MC5); [125I]-NDP-αMSH): + (“+” indicates greater than 50% inhibition at 10 μM)
A6: inhibition of radioligand binding, human melanin-concentrating hormone (MCH1) ([1]; [125I]-S36057): + (“+” indicates greater than 50% inhibition at 10 μM)
A7: inhibition of radioligand binding, human μ-opioid (MOP) (Human μ-opioid (MOP); [3H]-Naloxone, 10 µM): − (“−” indicates less than 50% inhibition at 10 μM)
A8: inhibition of radioligand binding, human neurokinin (NK1) (Human neurokinin (NK1); [125I]-Substance P): + (“+” indicates greater than 50% inhibition at 10 μM)
A9: inhibition of radioligand binding, human neuropeptide Y (NPY-Y1) ([2]; [125I]-PYY): − (“−” indicates less than 50% inhibition at 10 μM)
A10: inhibition of radioligand binding, human opioid (ORL1) (Human opioid (ORL1); [125I]-Nociceptin, 10 µM): + (“+” indicates greater than 50% inhibition at 10 μM)
A11: inhibition of radioligand binding, mouse urotensin (mUR2) (Mouse urotensin (mUR2); [125I]-Urotensin II): − (“−” indicates less than 50% inhibition at 10 μM)

COC[C@H]1OC(OCc2ccc(-c3ccccc3)cc2)[C@H](NC(=O)CNC(=N)N)[C@@H](OCc2ccc(-c3ccccc3)cc2)[C@@H]1O (stereo partly shown) [compound 1]
A1 radioligand binding inhibition (Human δ-opioid (DOP)): − (“−” indicates less than 50% inhibition at 10 μM)
A2 radioligand binding inhibition (Human κ-Opioid (KOP)): − (“−” indicates less than 50% inhibition at 10 μM)
A3 radioligand binding inhibition (Human Melanocortin (MC3)): + (“+” indicates greater than 50% inhibition at 10 μM)
A4 radioligand binding inhibition (Human Melanocortin (MC4)): + (“+” indicates greater than 50% inhibition at 10 μM)
A5 radioligand binding inhibition (Human melanocortin (MC5)): + (“+” indicates greater than 50% inhibition at 10 μM)
A6 radioligand binding inhibition [1]: + (“+” indicates greater than 50% inhibition at 10 μM)
A7 radioligand binding inhibition (Human μ-opioid (MOP)): − (“−” indicates less than 50% inhibition at 10 μM)
A8 radioligand binding inhibition (Human neurokinin (NK1)): + (“+” indicates greater than 50% inhibition at 10 μM)
A9 radioligand binding inhibition [2]: − (“−” indicates less than 50% inhibition at 10 μM)
A10 radioligand binding inhibition (Human opioid (ORL1)): − (“−” indicates less than 50% inhibition at 10 μM)
A11 radioligand binding inhibition (Mouse urotensin (mUR2)): − (“−” indicates less than 50% inhibition at 10 μM)

COC[C@H]1OC(OCc2ccc(-c3ccccc3)cc2)[C@H](NC(=O)CCCN)[C@@H](OCc2ccc(-c3ccccc3)cc2)[C@@H]1O (stereo partly shown) [compound 2]
A1 radioligand binding inhibition (Human δ-opioid (DOP)): − (“−” indicates less than 50% inhibition at 10 μM)
A2 radioligand binding inhibition (Human κ-Opioid (KOP)): − (“−” indicates less than 50% inhibition at 10 μM)
A3 radioligand binding inhibition (Human Melanocortin (MC3)): − (“−” indicates less than 50% inhibition at 10 μM)
A4 radioligand binding inhibition (Human Melanocortin (MC4)): + (“+” indicates greater than 50% inhibition at 10 μM)
A5 radioligand binding inhibition (Human melanocortin (MC5)): + (“+” indicates greater than 50% inhibition at 10 μM)
A6 radioligand binding inhibition [1]: + (“+” indicates greater than 50% inhibition at 10 μM)
A7 radioligand binding inhibition (Human μ-opioid (MOP)): − (“−” indicates less than 50% inhibition at 10 μM)
A8 radioligand binding inhibition (Human neurokinin (NK1)): + (“+” indicates greater than 50% inhibition at 10 μM)
A9 radioligand binding inhibition [2]: − (“−” indicates less than 50% inhibition at 10 μM)
A10 radioligand binding inhibition (Human opioid (ORL1)): − (“−” indicates less than 50% inhibition at 10 μM)
A11 radioligand binding inhibition (Mouse urotensin (mUR2)): − (“−” indicates less than 50% inhibition at 10 μM)

COC[C@H]1OC(OCc2ccc(-c3ccccc3)cc2)[C@H](NC(=O)CNC(=N)N)[C@@H](OCc2ccc3ccccc3c2)[C@@H]1O (stereo partly shown) [compound 3]
A1 radioligand binding inhibition (Human δ-opioid (DOP)): − (“−” indicates less than 50% inhibition at 10 μM)
A2 radioligand binding inhibition (Human κ-Opioid (KOP)): − (“−” indicates less than 50% inhibition at 10 μM)
A3 radioligand binding inhibition (Human Melanocortin (MC3)): − (“−” indicates less than 50% inhibition at 10 μM)
A4 radioligand binding inhibition (Human Melanocortin (MC4)): − (“−” indicates less than 50% inhibition at 10 μM)
A5 radioligand binding inhibition (Human melanocortin (MC5)): + (“+” indicates greater than 50% inhibition at 10 μM)
A6 radioligand binding inhibition [1]: + (“+” indicates greater than 50% inhibition at 10 μM)
A7 radioligand binding inhibition (Human μ-opioid (MOP)): − (“−” indicates less than 50% inhibition at 10 μM)
A8 radioligand binding inhibition (Human neurokinin (NK1)): + (“+” indicates greater than 50% inhibition at 10 μM)
A9 radioligand binding inhibition [2]: − (“−” indicates less than 50% inhibition at 10 μM)
A10 radioligand binding inhibition (Human opioid (ORL1)): − (“−” indicates less than 50% inhibition at 10 μM)
A11 radioligand binding inhibition (Mouse urotensin (mUR2)): − (“−” indicates less than 50% inhibition at 10 μM)

COC[C@H]1OC(OCc2ccc(-c3ccccc3)cc2)[C@H](NC(=O)CCNC(=N)N)[C@@H](OCc2ccc3ccccc3c2)[C@@H]1O (stereo partly shown) [compound 4]
A1 radioligand binding inhibition (Human δ-opioid (DOP)): − (“−” indicates less than 50% inhibition at 10 μM)
A2 radioligand binding inhibition (Human κ-Opioid (KOP)): − (“−” indicates less than 50% inhibition at 10 μM)
A3 radioligand binding inhibition (Human Melanocortin (MC3)): − (“−” indicates less than 50% inhibition at 10 μM)
A4 radioligand binding inhibition (Human Melanocortin (MC4)): − (“−” indicates less than 50% inhibition at 10 μM)
A5 radioligand binding inhibition (Human melanocortin (MC5)): + (“+” indicates greater than 50% inhibition at 10 μM)
A6 radioligand binding inhibition [1]: + (“+” indicates greater than 50% inhibition at 10 μM)
A7 radioligand binding inhibition (Human μ-opioid (MOP)): − (“−” indicates less than 50% inhibition at 10 μM)
A8 radioligand binding inhibition (Human neurokinin (NK1)): + (“+” indicates greater than 50% inhibition at 10 μM)
A9 radioligand binding inhibition [2]: − (“−” indicates less than 50% inhibition at 10 μM)
A10 radioligand binding inhibition (Human opioid (ORL1)): − (“−” indicates less than 50% inhibition at 10 μM)
A11 radioligand binding inhibition (Mouse urotensin (mUR2)): − (“−” indicates less than 50% inhibition at 10 μM)
